Assay [1] deals with convulsions induced by i.c.v. infusion of NMDA. Kind of assay: Convulsions induced by i.c.v. infusion of NMDA (Test 2), time to onset of clonic seizures. The format is in vivo, mouse (male NMRI). To be noted: i.c.v. co-infusion with NMDA, mice. As to the method:
The glycine antagonists are co-infused with NMDA and their anticonvulsive effect is measured by determining a) the TVSO value which represents the dose (μg/kg) of the glycine antagonist that has to be infused per minute in order to increase time to onset of clonic seizures by 50%, b) the ED50 value which represents the dose (μg/kg) of the glycine antagonist that has to be infused per minute in order to protect 50% of the animals against clonic seizures for 150 seconds after the start of i.c.v. infusion.
Convulsions induced by i.c.v. infusion of NKDA (Test 2 & 3)
58.84 μg/ml ([…] in 2.5 μl) of NMDA (Sigma) dissolved in 0.9% NaCl is co-infused i.c.v. with a glycine antagonist at a speed of 5 μl/min. Infusion is performed through a cannula placed 1 mm posterior and 1 mm lateral to the Bregma point. The cannula is injected […] into the skull of male NMRI mice weighing 25 g (range 23-27 g). Placement and length of the cannula into the skull is fixed by a plate positioned 4.3 mm from the point of the cannula. The infusion is stopped after the appearance of clonic seizures in all extremities or 150 seconds after the start time of the infusion. At least 5 doses of each glycine antagonist are tested using 8 mice per dose.

Assay [2] has as its target T1, glycine site of the NMDA receptor complex (Rattus norvegicus, UniProt P35439).
T1 construct: Crude synaptic (P2) membranes are prepared from rat forebrains freshly dissected from male Wistar rats; from tissue; host or cells: forebrain of male Wistar rats, crude synaptic (P2) membranes, washed with Triton X-100
Kind of assay: In vitro [3H]-Glycine Binding to Rat Brain Membranes (Test 1). More on the design: species or system rat (male Wistar). To be noted: rat forebrain membranes, 4° C., 30 min, read-out: IC50, displacement of 50% of the specific binding of [3H]-glycine. How it is done: The compounds according to the invention were tested as regards the affinity for one or more of the different types of excitatory amino acid receptors and studied in simple radioligand binding experiments. In essence, the method involves incubation of a particular selected radiolabelled ligand and the particular specific substance to be investigated with brain homogenates which contain the receptor. Measurement of receptor occupancy is made by determination of the specific radioactivity bound to the homogenate.
The glycine site binding activity of these compounds of the present invention can be illustrated by determining their capability for displacing radioactively labelled glycine from the glycine site.
The displacement activity of the compounds may be shown by determining the IC50 value which represents the concentration (μM) which causes a displacement of 50% of the specific binding of [^3 H)-glycine.
In vitro [^3 H]-Glycine Binding to Rat Brain Membranes (Test 1)
The membrane preparation and assay of specific [^3 H]-glycine binding is based upon methodology described by Haring et al. (1991) J. Neurochem. 57, 323-332 and Yoneda et al. (1991) J. Neurochem. 55, 237-244.
All steps are performed at 4° C. Buffers are prepared fresh each week from distilled, deionized water and filtered through sterile 0.2 μm membranes to eliminate artifacts due to microbial contamination. Crude synaptic (P2) membranes are prepared from rat forebrains freshly dissected from male Wistar rats and washed 4 times with low ionic strength buffer.,On the day of the assay these preparations are additionally washed with buffer containing a low concentration (0.08% g/g) of Triton X-100, and then twice more in the absence of this detergent. The procedure is aimed at the disruption of synaptic membrane vesicles and removal of endogenous amino acids.
Specific radioligand binding is measured by incubating membranes (400-600 μg/ml of protein) with […] [^3 H]-glycine in the presence or absence of 1mM of unlabelled glycine at 4° C. for 30 min. Free and bound ligand are separated by centrifugation. Each pellet is rinsed 2X and bound radioactivity measured by liquid scintillation counting. Test substances are substituted for unlabelled glycine in the assay.

In the case of `Cc1csc2[nH]c(=O)c(=O)[nH]c12` [Example 2, 7-Methylthieno(2,3-b)pyrazine-2,3(1H,4H)-dione], the “TV50, dose infused per minute to increase time to onset of clonic seizures by 50%” value in assay [1] came to 0.007 mg/kg. Moreover, the IC50 (commonly the concentration needed to halve the response being measured) in assay [2] came to 1000 nM.
As to `Cc1sc2[nH]c(=O)c(=O)[nH]c2c1C#N` [Example 6, 7-Cyano-6-methylthieno[2,3-b)pyrazine-2,3(1H,4H)-dione], the “TV50, dose infused per minute to increase time to onset of clonic seizures by 50%” value in assay [1] turned out to be 0.044 mg/kg. In addition, the IC50 in assay [2] was 1270 nM.
Turning to `CCCc1c(Cl)sc2[nH]c(=O)c(=O)[nH]c12` [Example 10, 6-Chloro-7-propylthieno[2,3-b)pyrazine-2,3(1H,4H)-dione], the “TV50, dose infused per minute to increase time to onset of clonic seizures by 50%” value in assay [1] is 0.0094 mg/kg. In addition, in assay [2], the IC50 was 180 nM.
Regarding `O=c1[nH]c2scc(C3CC3)c2[nH]c1=O` [Example 25, 7-Cyclopropylthieno(2,3-b]pyrazine-2,3(1H,4H)-dione], the “TV50, dose infused per minute to increase time to onset of clonic seizures by 50%” value in assay [1] was found to be 0.076 mg/kg. The IC50 in assay [2] is 850 nM.
Consider `O=c1[nH]c2scc(Br)c2[nH]c1=O` [Example 38, 7-Bromothieno(2,3-b)pyrazine-2,3(1H,4H)-dione], for which, in assay [1], the “TV50, dose infused per minute to increase time to onset of clonic seizures by 50%” value came to 0.0348 mg/kg. In addition, the half-maximal inhibitory concentration (IC50) in assay [2] worked out at 180 nM.

Values taken from patent publication US5284847A, “Thieno pyrazine diones, their preparation and use” (Novo Nordisk A/S, priority 1991, dated 1994).
